ChEMBL document CHEMBL4346716, “Synthesis of novel andrographolide beckmann rearrangement derivatives and evaluation of their HK2-related anti-inflammatory activities” (Eur J Med Chem, 2019)
Calls of active or inactive are those of the source. The calls are words filed in the database; no cut-off is given here.

Legend:
[1] = biological target: T1, Hexokinase-2 (Homo sapiens, UniProt P52789); test: Binding affinity to recombinant human HK2 expressed in Escherichia coli BL21(DE3) assessed as dissociation constant measured after 15 mins by microscale thermophoresis assay
T1 sequence (P52789 whole entry): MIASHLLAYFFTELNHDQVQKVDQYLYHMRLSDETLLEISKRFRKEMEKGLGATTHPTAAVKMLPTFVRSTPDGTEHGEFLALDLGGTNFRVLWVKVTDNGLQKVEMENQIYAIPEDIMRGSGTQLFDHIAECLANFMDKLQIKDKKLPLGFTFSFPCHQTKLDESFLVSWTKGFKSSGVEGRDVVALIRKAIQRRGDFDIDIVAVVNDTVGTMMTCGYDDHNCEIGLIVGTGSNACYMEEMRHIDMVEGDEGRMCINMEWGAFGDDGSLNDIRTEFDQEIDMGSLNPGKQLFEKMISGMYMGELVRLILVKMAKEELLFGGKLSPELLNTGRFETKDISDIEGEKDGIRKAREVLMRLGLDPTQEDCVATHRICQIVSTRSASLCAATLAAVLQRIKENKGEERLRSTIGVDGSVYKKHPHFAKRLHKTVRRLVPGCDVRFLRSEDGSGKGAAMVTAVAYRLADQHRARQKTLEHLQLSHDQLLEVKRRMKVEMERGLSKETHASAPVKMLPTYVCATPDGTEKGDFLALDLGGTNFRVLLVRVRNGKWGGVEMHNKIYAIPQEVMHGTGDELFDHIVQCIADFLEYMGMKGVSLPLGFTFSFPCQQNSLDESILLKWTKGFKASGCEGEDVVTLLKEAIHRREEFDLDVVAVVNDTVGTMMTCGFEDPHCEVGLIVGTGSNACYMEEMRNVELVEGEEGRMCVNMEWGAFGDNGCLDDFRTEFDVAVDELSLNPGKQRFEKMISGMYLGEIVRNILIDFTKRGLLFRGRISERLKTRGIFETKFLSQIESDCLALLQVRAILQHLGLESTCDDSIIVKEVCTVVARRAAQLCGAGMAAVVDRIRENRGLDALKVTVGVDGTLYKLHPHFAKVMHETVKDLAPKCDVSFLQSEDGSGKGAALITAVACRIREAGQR

[2] = biological target: T1, Hexokinase-2; test: Inhibition of recombinant human HK2 expressed in Escherichia coli BL21(DE3) using glucose as substrate preincubated for 10 mins followed by substrate addition in presence of ATP by G6PDH/NADP coupled assay
[3] = system: RAW264.7; test: Antiinflammatory activity in mouse RAW264.7 cells assessed as inhibition of LPS-induced NO production preincubated for 3 hrs followed by LPS addition measured after 24 hrs by Griess assay; format: functional, cell-based
[4] = system: RAW264.7; test: Inhibition of LPS-induced NFkappaB protein expression in mouse RAW264.7 cells at 12.5 to 50 uM preincubated for 3 hrs followed by LPS addition and measured after 24 hrs by Western blot analysis; format: functional, cell-based
[5] = biological target: T2, Hexokinase-2 (Homo sapiens) (UniProt P52789); test: Non competitive inhibition of recombinant human HK2 expressed in Escherichia coli BL21(DE3) assessed as decrease in Vmax using ATP as substrate by Lineweaver-Burk double reciprocal plot analysis
T2 sequence (whole entry): T1 sequence (P52789 whole entry)

[6] = system: RAW264.7; test: Antiinflammatory activity in mouse RAW264.7 cells assessed as reduction in LPS-induced IL-6 production preincubated for 3 hrs followed by LPS addition measured after 24 hrs by ELISA; format: functional, cell-based
[7] = system: RAW264.7; test: Cytotoxicity against mouse RAW264.7 cells assessed as reduction in cell viability up to 100 uM after 24 hrs by MTT assay; format: cell-based; settings: raw264.7, 24 h
[8] = biological target: T3, Hexokinase-2 (Mus musculus) (UniProt O08528); test: Inhibition of HK2 mouse RAW264.7 cells assessed as reduction in LPS-induced glycolysis at 50 uM followed by LPS-stimulation and measured after 4 hrs by seahorse XFe96 analyser based assay; format: cell-based
T3 sequence (whole entry): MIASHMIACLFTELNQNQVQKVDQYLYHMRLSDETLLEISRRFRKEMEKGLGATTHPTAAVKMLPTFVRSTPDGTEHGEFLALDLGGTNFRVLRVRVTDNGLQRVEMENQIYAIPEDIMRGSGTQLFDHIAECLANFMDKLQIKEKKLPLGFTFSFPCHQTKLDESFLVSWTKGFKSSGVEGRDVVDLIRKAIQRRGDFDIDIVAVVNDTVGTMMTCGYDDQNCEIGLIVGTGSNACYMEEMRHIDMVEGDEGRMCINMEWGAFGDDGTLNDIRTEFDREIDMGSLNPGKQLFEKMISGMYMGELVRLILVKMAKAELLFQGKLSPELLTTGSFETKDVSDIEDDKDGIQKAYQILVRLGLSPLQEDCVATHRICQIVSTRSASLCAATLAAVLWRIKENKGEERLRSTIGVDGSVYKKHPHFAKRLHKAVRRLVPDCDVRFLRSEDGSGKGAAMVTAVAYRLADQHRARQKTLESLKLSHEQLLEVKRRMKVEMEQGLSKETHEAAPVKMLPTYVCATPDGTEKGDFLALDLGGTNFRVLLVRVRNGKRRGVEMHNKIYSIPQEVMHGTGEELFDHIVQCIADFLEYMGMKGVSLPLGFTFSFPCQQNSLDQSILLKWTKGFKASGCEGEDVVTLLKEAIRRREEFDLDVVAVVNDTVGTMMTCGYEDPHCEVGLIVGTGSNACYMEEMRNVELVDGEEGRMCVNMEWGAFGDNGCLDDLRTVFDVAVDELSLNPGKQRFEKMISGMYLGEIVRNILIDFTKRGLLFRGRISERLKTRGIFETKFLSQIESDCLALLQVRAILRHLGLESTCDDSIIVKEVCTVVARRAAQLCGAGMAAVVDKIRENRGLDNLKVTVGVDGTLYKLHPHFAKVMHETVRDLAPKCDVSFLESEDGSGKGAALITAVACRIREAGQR

[9] = biological target: T2, Hexokinase-2 (Homo sapiens); test: Non competitive inhibition of recombinant human HK2 expressed in Escherichia coli BL21(DE3) assessed as decrease in Vmax using glucose as substrate by Lineweaver-Burk double reciprocal plot analysis
[10] = system: RAW264.7; test: Antiinflammatory activity against mouse RAW264.7 cells assessed as inhibition of LPS-induced COX2 protein expression preincubated for 3 hrs followed by LPS addition measured after 24 hrs by Western blot analysis; format: functional, cell-based
[11] = system: RAW264.7; test: Antiinflammatory activity in mouse RAW264.7 cells assessed as reduction in LPS-induced IL-1beta production preincubated for 3 hrs followed by LPS addition measured after 24 hrs by ELISA; format: functional, cell-based
[12] = biological target: Transcription factor p65 (Mus musculus) (UniProt Q04207); test: Inhibition of LPS-stimulated NFkappaB p65 nuclear translocation in mouse RAW264.7 cells at 25 uM pretreated for 2 hrs followed by LPS-stimulation and measured after 12 hrs by DAPI staining based fluorescence microscopic analysis; format: cell-based
[13] = system: RAW264.7; test: Antiinflammatory activity against mouse RAW264.7 cells assessed as inhibition of LPS-induced iNOS protein expression preincubated for 3 hrs followed by LPS addition measured after 24 hrs by Western blot analysis; format: functional, cell-based

Chain of Transcription factor p65 (Mus musculus) (Q04207 whole entry): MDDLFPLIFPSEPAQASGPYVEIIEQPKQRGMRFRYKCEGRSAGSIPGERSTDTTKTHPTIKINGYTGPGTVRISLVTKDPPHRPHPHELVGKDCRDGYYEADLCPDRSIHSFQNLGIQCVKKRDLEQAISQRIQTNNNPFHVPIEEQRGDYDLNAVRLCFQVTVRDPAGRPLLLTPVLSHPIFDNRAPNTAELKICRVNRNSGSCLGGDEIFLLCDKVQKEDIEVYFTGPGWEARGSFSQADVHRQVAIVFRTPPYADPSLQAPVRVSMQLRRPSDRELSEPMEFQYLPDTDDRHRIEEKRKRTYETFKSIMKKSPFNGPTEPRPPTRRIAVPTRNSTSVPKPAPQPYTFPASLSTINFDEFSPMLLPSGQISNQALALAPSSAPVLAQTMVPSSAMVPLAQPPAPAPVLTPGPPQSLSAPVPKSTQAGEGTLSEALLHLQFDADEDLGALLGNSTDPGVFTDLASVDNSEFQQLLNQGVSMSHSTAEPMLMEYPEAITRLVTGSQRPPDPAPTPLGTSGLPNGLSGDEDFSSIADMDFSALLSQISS

Work on `C=C1CC[C@H]2[C@@](C)(CCC(=O)N[C@@]2(C)COC(=O)CCCC[C@@H]2CCSS2)[C@@H]1/C=C/C1=CCOC1=O` yielded a Kd [1] of 5.12 µM, an IC50 [2] of 9.36 µM and an IC50 [3] of 22.4 µM. For the same compound, the inhibition [4] was “Active”, the inhibition [5] was “Dose-dependent effect” and the inhibition [6] was “Dose-dependent effect”. For the same compound, the Activity [7] was “Non-Toxic”, the inhibition [8] was “Active” and the inhibition [9] was “Dose-dependent effect”. For the same compound, the inhibition [10] was “Dose-dependent effect”, the inhibition [11] was “Dose-dependent effect” and the inhibition [12] was “Active”. The inhibition [13] was “Dose-dependent effect”.
